The test system of data set [1] is Enterococcus faecalis BG-029. In words: Mouse peritonitis model, bacterial counts in peritoneal fluid. It counts as in vivo, NMRI mice. The note with it: neutropenic mice; subcutaneous; 6 h; ciprofloxacin 12.5 mg per mouse, trans-clopenthixol 5 mg per kg, alone or combined. As to the method: Female NMRI mice (age, approximately 6 to 8 weeks; weight, 30±2 g) were used for the mouse […] peritonitis model (as described below). Bacterial suspensions were prepared from fresh overnight cultures (made from frozen stock cultures) on 5% blood agar plates as described above. […] The size of the inoculum was determined by viability counting on 5% blood agar. Neutropenia was introduced by pretreating the mice with cyclophosphamide (6 mg daily for three days). […] Inoculated untreated control mice were included in all trials. […] After the mice were killed, peritoneal washes were performed by injecting 2 ml of sterile saline intraperitoneally, followed by massage of the abdomen and then opening of the peritoneum to collect the fluid.

The test system of another data set is E. coli, LN 3164. In words: MIC susceptibility test, microdilution broth method (NCCLS), chemosensitising compound alone. It counts as cell-based. Particulars: 37° C., 16 h. How it is done:
Bacteria were sub-cultured on Mueller-Hinton agar plates and incubated over night at 37° C. Pre-warmed Mueller-Hinton broth was inoculated with colonies from the plate and incubated for approximately three hours to achieve a log phase culture. The log phase culture of bacteria was diluted with fresh pre-warmed medium and adjusted to a defined Optical Density (OD) at 600 nm in order to give a final assay concentration of 1×10^4 bacteria/ml medium.
Cell growth was tested using the MIC susceptibility tests by use of the microdilution broth method in accordance to the NCCLS Guidelines (NCCLS Guidelines, Methods for Dilution Antimicrobial Susceptibility Tests for Bacteria That Grow Aerobically; Approved Standard, Sixth Edition, Volume 23; Number 2). A 100% Mueller-Hinton broth and a bacterial concentration of 1×10^4/ml were used.
A log phase culture of bacteria was diluted with fresh pre-warmed medium and adjusted to a defined OD at 600 nm in order to give a final concentration of 1×10^4 bacteria/ml medium in each well. Each chemosensitising compound was added to the bacterial culture in the wells in two-fold dilutions in order to give final concentrations ranging from 8 to 500 μg/ml. Trays were incubated at 37° C. for 16 h. Minimal Inhibitory Concentration, (MIC) is defined as the lowest inhibitory concentration showing no visible growth according to the NCCLS Guidelines.
In general terms: In broth dilution the organism is exposed to a series of concentrations in liquid medium.

The nature of data set [2]: Pharmacokinetic studies of Trans-clopenthixol with mice, concentrations in sera. It counts as in vivo, NMRI mice. The note with it: single dose of 0.3 mg per mouse, subcutaneous, 1-24 h (FIG. 4). As to the method:
Pharmacokinetic studies were done with NMRI mice. Concentrations in sera were determined after the administration of a single dose of 0.3 mg per mouse. The drug was administered by subcutaneous injection in the neck region in a volume of 0.2 ml per dose. At 1, 2, 4, 6, and 24 hours after the injection blood samples were obtained from the mice in groups of three. After collection, the blood was centrifuged and the serum was stored at −80° C. until it was analyzed by High Pressure Liquid Chromatography.

Data set [3] relates to Fluconazole Resistant Candida albicans. In words: Checkerboard combination study on fungals, broth microdilution (NCCLS M27-A). Type of data set: cell-based. Particulars: for FIC index: fluconazole with trans-clopenthixol. How it is done: The synergistic effect of Trans-clopenthixol was studied by checkerboard combination studies exposing cells to 0-256 μg/ml anti-infective agent in the absence or presence of trans-clopenthixol (0 to 8 μg/ml in two-fold dilutions). Each experiment was repeated in tripleduplicate. MIC values represent the mean values of two separate experiments.
Clinical Isolate of a Fluconazole Resistant Candida albicans from a Patient with candidemia.
The isolates were subcultured for 24 h on Sabouraud glucose agar before susceptibility testing.
Broth microdilution tests were performed according to NCCLS document M27-A (Ref: National Committee for Clinical Laboratory Standards. (1997). Reference Method for Broth Dilution Antifungal Susceptibility Testing of Yeasts: Approved Standard M27-A. NCCLS, Wayne, Pa.)
Microtitre plates were read spectrophotometrically at 530 nm, after mixing the wells by pipetting to resuspend yeast sediments.
The Fractional Inhibitory Concentration (FIC) was calculated for the anti-infective agent alone and in combination with trans-clopenthixol. The following formulae were used to calculate the FIC index:
(§1) FIC=FICchemosensitising compound+FICanti-infective agent
(§2) FICchemosensitising compound=(MICchemosensitising compound+anti-infective agent)/(MICchemosensitising compound)
FICanti-infective agent=(MICanti-infective agent+chemosensitising compound/(MICanti-infective agent)
(§3) Synergy was defined as a FIC index of <0.5.

The next data set concerns P. aeruginosa 432b. Description: Checkerboard combination study (FIC index). Type of data set: cell-based. Particulars: isolate resistant (R). How it is done:
P. aeruginosa 432b. Clinical multidrug resistant isolate. Resistant to tetracycline, beta-lactams, fluoroquinolones, and aminoglycosides. Beta-lactamase producing, changes in Penicillin Binding Proteins and changes in Outer Membrane Proteins.
(§4) The synergistic effect was studied by checkerboard combination studies exposing cells to 0-64 μg/ml anti-infective agent in the absence or presence of trans-flupenthixol, cis-flupenthixol or trans-clopenthixol. Each experiment was repeated in tripleduplicate. MIC values represent the mean values of two separate experiments,
(§5) A log phase culture of bacteria was diluted with fresh pre-warmed medium and adjusted to a defined OD at 600 nm in order to give a final concentration of 1×10^4 bacteria/ml medium in each well. Each chemosensitising compound was added to the bacterial culture in the wells in two-fold dilutions in order to give final concentrations ranging from 0 to 8 μg/ml. Anti-infective agent was added to the bacterial culture in the wells in two-fold dilutions in order to give final concentrations ranging from 0 to 64 μg/ml Trays were incubated at 37° C. for 16 h. Wells were assessed visually for growth. The Fractional Inhibitory Concentration (FIC) was calculated for each anti-infective agent alone and in combination with trans-flupenthixol, cis-flupenthixol or trans-clopenthixol. The following formulae were used to calculate the FIC index:
as §1, §2
(§6) FICanti-infective agent=(MICanti-infective agent+chemosensitising compound/(MICanti-Infective agent)
as §3

In a further data set the test system is S. aureus O11. In words: Checkerboard combination study (FIC index). It counts as cell-based, Staphylococcus aureus. Particulars: anti-infective agent Dicloxacillin; isolate susceptible (S). How it is done:
Staphylococcus aureus O11. Clinical isolate resistant to penicillin. Susceptible to methicillin, tetracycline, beta-lactams, fluoroquinolones, chloramphenicol and aminoglycosides.
as §4, §5, §1, §2, §6, §3

Where only a bound is given, the exact number is not on record here.

In general, MIC refers to the smallest concentration in the dilution series that meets the test's criterion for growth inhibition. Regarding `OCCN1CCN(CC/C=C2\c3ccccc3Sc3ccc(Cl)cc32)CC1` [trans-clopenthixol], the “bactericidal activity in mouse peritoneum (in words)” value in data set [1] is recorded as “did not affect the bacteria”. Besides, the MIC turned out to be 16 µg/mL in the data set with E. coli, LN 3164 and 32 µg/mL in data set [3] (agent alone). Moreover, the Serum values entry in data set [2] is on record as “less than 300 ng/ml”. The FIC index was < 0.5 in data set [3]; 0.16 in data set [3] (listed as Trans-clopenthixol); 0.008 in the data set with P. aeruginosa 432b (anti-infective agent Ciprofloxacin); 0.032 with P. aeruginosa 432b (anti-infective agent Gentamicin); 0.063 in the data set with P. aeruginosa 432b (anti-infective agent Piperacillin); 0.25 in the data set with S. aureus O11. For the same compound, the effective concentrations in data set [3] (in combination with an anti-fungal agent) is ≤ 3 µg/mL.
